From paper PMC4834642, “Orthogonal ring-closing alkyne and olefin metathesis for the synthesis of small GTPase-targeting bicyclic peptides” (Nature Communications, 2016)
Each block holds one compound with its values, some of them ahead of it. Bridge positions count the residues as written; N and C are the ends. Square brackets hold non-standard residues; d marks the D form. Peptide text beside a SMILES is read from it. * marks the point of attachment. FITC = O=C1OC2(c3ccc(O)cc3Oc3cc(O)ccc32)c2ccc(NC(=S)*)cc21; S5 = C=CCCC[C@](C)(N)C(=O)O; AEEA = NCCOCCOCC(=O)O

Columns and labels:
[1] = On-resin ring-closing alkyne metathesis (RCAM), alpha-methyl-alpha-alkynyl residues at i,i+4, Mo alkylidyne complex 5 (2 mg/mL, 2 x 0.5 mL), Ar bubbling to remove 2-butyne; bicyclic entries (24-29) additionally closed by RCM (Grubbs I); conditions: the molecule shown is the open-chain precursor, toluene, 40.0 °C, 3.0 h
Rab8a6-176(GppNHp) = molecular target: T1, Rab8a6-176(GppNHp) (Homo sapiens, UniProt P61006); test: Fluorescence polarization (FP) binding assay of fluorescein-labelled peptides; conditions: for Rel. Kd (Kd [Peptide]/Kd [StRIP3]) / Kd: FP, fluorescein-PEG labelled peptide 66 nM, 4 h room temperature, 25 mM HEPES pH 7.5; for Rel. Kd (Kd [Peptide]/Kd [StRIP3]): Kd values are single point measurements (n = 1); for Kd: average of triplicate measurements, errors 1σ
T1 construct: Expression and purification of Rab8a6-176 was performed analog to full-length Rab8a; made in house
T1 sequence (P61006 6-176): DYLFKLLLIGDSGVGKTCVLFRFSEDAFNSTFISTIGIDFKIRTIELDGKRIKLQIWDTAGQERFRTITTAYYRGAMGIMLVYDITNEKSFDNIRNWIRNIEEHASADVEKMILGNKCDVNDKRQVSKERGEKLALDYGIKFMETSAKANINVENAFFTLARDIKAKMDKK
Experimental: Rab8a6–176(GppNHp) was serially diluted in a buffer containing 25 mM HEPES (pH 7.5), 150 mM NaCl, 1 mM MgCl2, 1 mM TCEP, 0.01% Tween 20 and 1 μM GppNHp, treated with 66 nM fluorescein-labelled peptides and incubated for 4 h at room temperature. Fluorescence polarization values (λex=470 nm, λem=525 nm) were determined at room temperature. Initial studies for alkyne macrocyclized peptides were performed as single measurements. Final affinity measurements of a subset of peptides were performed in triplicates. After correction for changes in fluorescence intensity upon binding, the fluorescence anisotoropy data were converted into fraction bound of the FITC-labelled peptide and fitted to a one-site binding model derived from the law of mass action using Kd as the only fitting parameter (for details, see Supplementary Methods)[63]. Nonlinear regression was performed in Prism 5.0 (Graphpad)[64]. […]
using a PD-10 desalting column Sephadex G-25 DNA Grade (GE Healthcare) with elution buffer consisting of 20 mM HEPES (pH 7.5), 50 mM NaCl, 1 mM TCEP. After removal of Mg2+ the protein was diluted to 80 - 100 µM before addition of ZnCl2 (500 µM) and (NH4)2SO4 (200 mM). After addition of alkaline phosphatase (5 U mg-1 Rab protein) the mixture was incubated for 16 h at 4°C. For nucleotide exchange, the mixture contained a 5-fold excess of GppNHp during alkaline phosphatase incubation. Afterwards, the mixture was desalted using a PD-10 desalting column Sephadex G-25 DNA Grade (GE Healthcare) with elution buffer consisting of 25 mM HEPES (pH 7.5) 150 mM NaCl, 1 mM TCEP, 1 mM MgCl2 and 1 µM GppNHp.
Fluorescence polarization assay for the determination of dissociation […]
Rab8a6-176 was serially diluted in a buffer containing 25 mM HEPES (pH 7.5), 150 mM NaCl, 1 mM MgCl2, 1 mM TCEP, 0.01% tween 20 and 1 µM GppNHp (assay buffer), treated with 66 nM fluorescein-labeled peptides and incubated for 4 h at room temperature. Binding assays were performed in 384-well, small volume, black flat-bottom, non-binding plates (Greiner). Fluorescence polarization values (λex = 470 nm, λem = 525 nm) were determined using a Safire II plate reader (Tecan) at room temperature. Initial studies for alkyne macrocyclized peptides were performed as single measurements. Final affinity measurements of a subset of peptides were performed in triplicates. After correction for changes in fluorescence intensity upon binding, the fluorescence anisotoropy data were converted into fraction bound (Supplementary equation 1) of the FITC- labeled peptide and fitted to a one-site binding model derived from the law of mass action using Kd as the only fitting parameter (Supplementary equation 2).4 In case of incomplete binding due to the limited solubility of Rab proteins, anisotropy top-values were extrapolated and constrained as indicated below. Non-linear regression was performed in Prism 5.0 […]
(Supplementary equation 1)
A: observed anisotropy; Afree: anisotropy of free fluorophore; Abound: anisotoropy of bound fluorophore; Q: change in fluorescence intensity between free and bound state […]
(Supplementary equation 2)
Kd: dissociation constant; LT: total concentration of labeled peptide; cRab: protein concentration Microscale Thermophoresis (MST)

SMILES: CC#CCCCC[C@](C)(NC(=O)[C@H](Cc1ccccc1)NC(=O)[C@H](CCC(=O)NC(c1ccccc1)(c1ccccc1)c1ccccc1)NC(=O)[C@H](CCC(=O)OC(C)(C)C)NC(=O)[C@](C)(CCCC#CC)NC(=O)[C@H](CCC(=O)OC(C)(C)C)NC(=O)[C@H](CC(=O)OC(C)(C)C)NC(=O)[C@H](CC(=O)OC(C)(C)C)NC(=O)OCC1c2ccccc2-c2ccccc21)C(=O)N[C@@H](Cc1ccc(OC(C)(C)C)cc1)C(=O)N[C@@H](Cc1cn(C(c2ccccc2)(c2ccccc2)c2ccccc2)cn1)C(=O)N[C@@H](CC(C)C)C(=O)N[C@@H](CC(C)C)C(=O)N[C@@H](COC(C)(C)C)C(=O)N[C@@H](Cc1ccccc1)C(=O)N[C@@H](CC(=O)NC(c1ccccc1)(c1ccccc1)c1ccccc1)C(=O)N[C@@H](C)C(=O)N[C@H](C(N)=O)C(C)C
- ring closure, overall yield ([1]; 22-membered ring): 12%

- Rel. Kd (Kd [Peptide]/Kd [StRIP3]) (Rab8a6-176(GppNHp)): 0.42
SMILES: CC(C)C[C@H](NC(=O)[C@H](Cc1c[nH]cn1)NC(=O)[C@H](Cc1ccc(O)cc1)NC(=O)[C@]1(C)CCCCC#CCCC[C@](C)(NC(=O)[C@H](CCC(=O)O)NC(=O)[C@H](CC(=O)O)NC(=O)[C@H](CC(=O)O)NC(=O)COCCOCCNC(=S)Nc2ccc3c(c2)C(=O)OC32c3ccc(O)cc3Oc3cc(O)ccc32)C(=O)N[C@@H](CCC(=O)O)C(=O)N[C@@H](CCC(N)=O)C(=O)N[C@@H](Cc2ccccc2)C(=O)N1)C(=O)N[C@@]1(C)CCC/C=C\CCC[C@@](C)(C(=O)N[C@H](C(N)=O)C(C)C)NC(=O)[C@H](CC(N)=O)NC(=O)[C@H](Cc2ccccc2)NC(=O)[C@H](CO)NC1=O [compound 28]

- Rel. Kd (Kd [Peptide]/Kd [StRIP3]) (Rab8a6-176(GppNHp)): 1.00
- Kd (Rab8a6-176(GppNHp)): 20.7 ± 0.7 µM
SMILES: CC(C)C[C@H](NC(=O)[C@H](CC(C)C)NC(=O)[C@H](Cc1c[nH]cn1)NC(=O)[C@H](Cc1ccc(O)cc1)NC(=O)[C@]1(C)CCC/C=C\CCC[C@](C)(NC(=O)[C@H](CCC(=O)O)NC(=O)[C@H](CC(=O)O)NC(=O)[C@H](CC(=O)O)NC(=O)COCCOCCNC(=S)Nc2ccc3c(c2)C(=O)OC32c3ccc(O)cc3Oc3cc(O)ccc32)C(=O)N[C@@H](CCC(=O)O)C(=O)N[C@@H](CCC(N)=O)C(=O)N[C@@H](Cc2ccccc2)C(=O)N1)C(=O)N[C@@H](CO)C(=O)N[C@@H](Cc1ccccc1)C(=O)N[C@@H](CC(N)=O)C(=O)N[C@@H](C)C(=O)N[C@H](C(N)=O)C(C)C [StRIP3] ({FITC-AEEA}-DDE[S5]EQF[S5]YHLLSFNAV-NH2; staple (Z) 4-8; C-terminus assumed)

SMILES: CC#CCCCC[C@](C)(NC(=O)[C@H](Cc1ccccc1)NC(=O)[C@H](CCC(=O)NC(c1ccccc1)(c1ccccc1)c1ccccc1)NC(=O)[C@H](CCC(=O)OC(C)(C)C)NC(=O)[C@](C)(CCCCC#CC)NC(=O)[C@H](CCC(=O)OC(C)(C)C)NC(=O)[C@H](CC(=O)OC(C)(C)C)NC(=O)[C@H](CC(=O)OC(C)(C)C)NC(=O)OCC1c2ccccc2-c2ccccc21)C(=O)N[C@@H](Cc1ccc(OC(C)(C)C)cc1)C(=O)N[C@@H](Cc1cn(C(c2ccccc2)(c2ccccc2)c2ccccc2)cn1)C(=O)N[C@@H](CC(C)C)C(=O)N[C@@H](CC(C)C)C(=O)N[C@@H](COC(C)(C)C)C(=O)N[C@@H](Cc1ccccc1)C(=O)N[C@@H](CC(=O)NC(c1ccccc1)(c1ccccc1)c1ccccc1)C(=O)N[C@@H](C)C(=O)N[C@H](C(N)=O)C(C)C
- ring closure, overall yield ([1]; 23-membered ring): 16%

SMILES: CC#CCCCC[C@](C)(NC(=O)[C@H](CCC(=O)OC(C)(C)C)NC(=O)[C@H](CC(=O)OC(C)(C)C)NC(=O)[C@H](CC(=O)OC(C)(C)C)NC(=O)OCC1c2ccccc2-c2ccccc21)C(=O)N[C@@H](CCC(=O)OC(C)(C)C)C(=O)N[C@@H](CCC(=O)NC(c1ccccc1)(c1ccccc1)c1ccccc1)C(=O)N[C@@H](Cc1ccccc1)C(=O)N[C@@](C)(CCCC#CC)C(=O)N[C@@H](Cc1ccc(OC(C)(C)C)cc1)C(=O)N[C@@H](Cc1cn(C(c2ccccc2)(c2ccccc2)c2ccccc2)cn1)C(=O)N[C@@H](CC(C)C)C(=O)N[C@@H](CC(C)C)C(=O)N[C@@H](COC(C)(C)C)C(=O)N[C@@H](Cc1ccccc1)C(=O)N[C@@H](CC(=O)NC(c1ccccc1)(c1ccccc1)c1ccccc1)C(=O)N[C@@H](C)C(=O)N[C@H](C(N)=O)C(C)C
- ring closure, overall yield ([1]; 22-membered ring): 23%

- Increase in binding affinity compared with StRIP3 (Rab8a6-176(GppNHp); FP Kd, Rab8a6-176(GppNHp)): 2 fold
- Rel. Kd (Kd [Peptide]/Kd [StRIP3]) (Rab8a6-176(GppNHp)): 0.40
- Kd (Rab8a6-176(GppNHp)): 10.7 ± 0.5 µM
SMILES: CC(C)C[C@H](NC(=O)[C@H](CC(C)C)NC(=O)[C@H](Cc1c[nH]cn1)NC(=O)[C@H](Cc1ccc(O)cc1)NC(=O)[C@]1(C)CCCCC(Br)=C(Br)CCCC[C@](C)(NC(=O)[C@H](CCC(=O)O)NC(=O)[C@H](CC(=O)O)NC(=O)[C@H](CC(=O)O)NC(=O)COCCOCCNC(=S)Nc2ccc3c(c2)C(=O)OC32c3ccc(O)cc3Oc3cc(O)ccc32)C(=O)N[C@@H](CCC(=O)O)C(=O)N[C@@H](CCC(N)=O)C(=O)N[C@@H](Cc2ccccc2)C(=O)N1)C(=O)N[C@@H](CO)C(=O)N[C@@H](Cc1ccccc1)C(=O)N[C@@H](CC(N)=O)C(=O)N[C@@H](C)C(=O)N[C@H](C(N)=O)C(C)C [peptide 21]

SMILES: CC#CCCC[C@](C)(NC(=O)[C@H](Cc1ccccc1)NC(=O)[C@H](CCC(=O)NC(c1ccccc1)(c1ccccc1)c1ccccc1)NC(=O)[C@H](CCC(=O)OC(C)(C)C)NC(=O)[C@](C)(CCCC#CC)NC(=O)[C@H](CCC(=O)OC(C)(C)C)NC(=O)[C@H](CC(=O)OC(C)(C)C)NC(=O)[C@H](CC(=O)OC(C)(C)C)NC(=O)OCC1c2ccccc2-c2ccccc21)C(=O)N[C@@H](Cc1ccc(OC(C)(C)C)cc1)C(=O)N[C@@H](Cc1cn(C(c2ccccc2)(c2ccccc2)c2ccccc2)cn1)C(=O)N[C@@H](CC(C)C)C(=O)N[C@@H](CC(C)C)C(=O)N[C@@H](COC(C)(C)C)C(=O)N[C@@H](Cc1ccccc1)C(=O)N[C@@H](CC(=O)NC(c1ccccc1)(c1ccccc1)c1ccccc1)C(=O)N[C@@H](C)C(=O)N[C@H](C(N)=O)C(C)C
- ring closure, overall yield ([1]; 21-membered ring): 0%
